Residues, ends and D or L forms follow the SMILES beside them. *: point of attachment. Pyropheophorbide(a) = C=Cc1c(C)c2cc3nc(c4c5[nH]c(cc6nc(cc1[nH]2)C(C)=C6CC)c(C)c5C(=O)C4)[C@@H](CCC(=O)*)[C@@H]3C; Hexanoyl(6-maleimido) = O=C1C=CC(=O)N1CCCCCC(=O)*

Series [1] can be described thus: Fluorescence emission (quantum yield and lifetime). Format: physicochemical. The conditions noted are these: ethanol; for τf (fluorescence lifetime): TCSPC, single exponential fit; for Φf (fluorescence quantum yield): excitation 412 nm, TPP in toluene as standard, 25 °C. The procedure: The setup and the protocol to evaluate the photophysical characterizations including the absorption, fluorescence, and singlet oxygen emission spectra in addition to the fluorescence and singlet oxygen lifetimes have been previously described by our team. The absorption spectra were recorded on a UV-3600 UV–vis double beam spectrophotometer (Shimadzu, Marne La Vallée, France) in the wavelength range of 200-800 nm. The measurements were performed on the molecules dispersed in ethanol in quartz cuvettes with an optical path of 10 mm. The fluorescence spectra were recorded on a Horiba Jobin Yvon Fluorolog-3 (FL3-222) spectrofluorimeter equipped with a 450W xenon lamp, a thermostated cell compartment (25 °C), a R928 (Hamamatsu, Massy, France) UV–vis photomultiplier and a liquid nitrogen cooled InGaAs infrared detector (DSS-16A020L Electro-Optical System Inc., Phoenixville, PA, USA). The excitation spectrometer used is a SPEX double grating monochromator (1200 grooves per mm blazed at 330 nm). The fluorescence was measured using the UV–vis detector through a SPEX double grating monochromator (600 grooves per mm blazed at 500 nm). The singlet oxygen production was measured using the IR detector through a SPEX double grating monochromator (600 grooves per mm blazed at 1 μm).
Fluorescence quantum yields (Φf) were determined using a tetraphenyl porphyrin (TPP) solution as the fluorescence standard (Φf = 0.11 in toluene, taking into account solvent refractive index and absorption efficiencies. For the direct determination of ^1O2 quantum yield (ΦΔ), excitation was performed with a Xe-arc, the light was separated in a SPEX 1680, 0.22 µm double monochromator. Detection at 1270 nm was carried out through a PTI S/N 1565 monochromator and the emission was monitored by a liquid nitrogen cooled Ge-detector (EO-817L, North Coast Scientific Co, OH, USA). Rose Bengal (RB) was chosen as a reference solution because of its high ^1O2 quantum yield in EtOH (ΦΔ = 0.68). The absorbance value at the excitation wavelengths (412 nm) of both the reference and the sample solutions were set to approximately 0.2 by dilution. The samples were all prepared in ethanol.
The quantum yield of fluorescence is determined by the equation (1):(1) Φf=Φf0×If/If0×[…]×(n/n0)^2 where Φf and Φf0, If and If0, DO and DO0, n and n0 are the quantum yields, intensities, optical densities and refraction indices of the sample and reference, respectively.
Fluorescence lifetimes were measured by Time-Correlated Single Photon Counting (TCSPC) using for excitation a pulsed laser diode LDH-P-C-405 coupled with a PDL 800-D driver (both from PicoQuant GmbH, Berlin, Germany) emitting at 408 nm (FWHM < 70 ps, 1 MHz) and an SPCM-AQR-15 avalanche photodiode (EG & G, Vaudreuil, Canada) coupled with a 650 nm (±10 nm) interference long-wave pass filter as the detection system. The acquisition system was a PicoHarp 300 module with a PHR-800 four-channel router (both from PicoQuant GmbH, Berlin, Germany). Fluorescence decays were recorded using the single photon counting method (four optical faced quartz cells for pure products in ethanol). Data were collected, and up to 1000 counts were accumulated in the maximum channel and analyzed using Fluofit TCSPC software (PicoQuant GmbH, Berlin, Germany) based on iterative reconvolution using a Levensberg-Marquandt algorithm. Singlet oxygen lifetime measurements have been performed on a TEMPRO-01 spectrophotometer (Horiba Jobin Yvon, Palaiseau, France). The apparatus was composed of a pulsed diode excitation source SpectraLED-415 emitting at 415 nm, a cuvette compartment, a Seya–Namioka type emission monochromator (600–2000 nm), and an H10330-45 near-infrared photomultiplier tube with a thermoelectric cooler (Hamamatsu, Massy, France) as the detection system. The system was monitored by a single photon counting controller FluoroHub-B and the software DataStation and DAS6 (Horiba Jobin Yvon, Palaiseau, France). […]

Series [2] concerns U87 glioblastoma cells. The series is described as follows: MTT phototoxicity after light exposure, U87 cells. Format: cell-based. The settings on record: 24 h; for decrease of cell viability: then 652 nm, 10 J/cm2 (4.54 mW·cm−2), MTT after further 24 h, triplicate; for PDT efficacy / photodynamic activity (in words): 10, 20 and 30 µM PS, 652 nm, 10 J/cm2, MTT. The procedure:
(§1) For in vitro experiments, U87 glioblastoma cells (ATCC® HTB-14™) were cultivated in Dulbecco’s modified eagle’s medium (DMEM) supplemented with sodium pyruvate 1.5 mM, MEM AA, MEM NE AA, MEM vitamins, L-Ser 14 μg·mL^−1, L-asp 25 μg·mL^−1, L-Glu 2.5 mM, 100 U·mL^−1 penicillin, 100 μg·mL^−1 streptomycin, and 20% FCS. They were cultured under standard cell culture conditions while incubated in 5% CO2/80% humidified air at 37 °C.
Cell survival of U87 after incubation with the hybrid AuNRs, the PS-peptide conjugate or the free PS in the dark (cytotoxicity) or after light exposure (phototoxicity) was investigated using an MTT assay as previously described. Briefly, U87 cells were plated into 48-well plates at an initial cell density of 2 × 10^4 cells/cm^2 in culture medium, incubated at 37 °C during 48 h. Old culture media were discarded and the wells were filled with 250 µL of culture medium containing different concentrations of the tested molecules (AuNRs@PEG-MI-K(Pyro)DKPPR-OH, MI-K(Pyro)DKPPR-OH and Pyro) at a final PS concentration of 10, 20, and 30 μM. After 24 h, the wells were washed three times with HBSS and filled with culture medium. To evaluate the cytotoxicity of the tested molecules towards the U87 cells, one plate was kept incubated in the dark. However, the phototoxicity induced by those molecules was assessed by exposing the cells to light at a fluence of 10 J·cm^−2 (fluence rate 4.54 mW·cm^−2, duration: 36 min 42 s) using a 652 nm diode laser system (Ceralas, Biolytec, Jena, Germany). The cells were further incubated for 24 h. The cell survival was measured by MTT assay where the cells were incubated for 3 h at 37 °C with 0.4 mg·mL^−1. After that, the excess of MTT was discarded and the formazan crystals that developed in the living cells were dissolved by DMSO. The absorption of formazan was measured at 540 nm with a background subtraction at 630 nm using a Multiskan Ascent plate reader (Thermo Scientific, Vantaa, Finland). Experiments were carried out in triplicates.
All in vitro experiments were realized in triplicate and expressed as a percentage of variation from control cells. The results were given as mean ± standard deviation (SD). Differences among groups were evaluated using variance analysis (Anova) followed by Bonferroni test (GraphPad Prism 6.0 software, San Diego, CA, USA). A value of p < 0.05 was considered as statistically significant. * Versus control cells.

In series [3] the test system is U87 glioblastoma cells. The series is described as follows: MTT cytotoxicity in the dark, U87 cells. Type of series: cell-based. The settings on record: 24 h in the dark, n = 3. Here is the method: as §1
Cell survival of U87 after incubation with the hybrid AuNRs, the PS-peptide conjugate or the free PS in the dark (cytotoxicity) or after light exposure (phototoxicity) was investigated using an MTT assay as previously described. […] However, the phototoxicity induced by those molecules was assessed by exposing the cells to light at a fluence of 10 J·cm^−2 (fluence rate 4.54 mW·cm^−2, duration: 36 min 42 s) using a 652 nm diode laser system (Ceralas, Biolytec, Jena, Germany). […] The cell survival was measured by MTT assay where the cells were incubated for 3 h at 37 °C with 0.4 mg·mL^−1. […] The absorption of formazan was measured at 540 nm with a background subtraction at 630 nm using a Multiskan Ascent plate reader (Thermo Scientific, Vantaa, Finland). […]
All in vitro experiments were realized in triplicate and expressed as a percentage of variation from control cells. […]

`C=Cc1c(C)c2cc3nc(c4c5[nH]c(cc6nc(cc1[nH]2)C(C)=C6CC)c(C)c5C(=O)C4)[C@@H](CCC(=O)NCCCC[C@H](NC(=O)CCCCCN1C(=O)C=CC1=O)C(=O)N[C@@H](CC(=O)O)C(=O)N[C@@H](CCCCN)C(=O)N1CCC[C@H]1C(=O)N1CCC[C@H]1C(=O)N[C@@H](CCCNC(=N)N)C(=O)O)[C@@H]3C` [MI-K(Pyro)DKPPR-OH] ({Hexanoyl(6-maleimido)}-K(Pyropheophorbide(a))DKPPR-OH): the “τf (fluorescence lifetime)” value in series [1] is 6.5 ns. In addition, in series [1], the “Φf (fluorescence quantum yield)” value came out at 0.29. The “decrease of cell viability” value in the series on U87 glioblastoma cells [2] (10 µM PS) turned out to be 25%; in the series with U87 glioblastoma cells [2] (20 µM PS), 46%; in the series with U87 glioblastoma cells [2] (30 µM PS) it was 58%. The “PDT efficacy / photodynamic activity (in words)” value with U87 glioblastoma cells [2] is recorded as “lower photodynamic activity”. In addition, the dark cytotoxicity result in the series with U87 glioblastoma cells [3] (even at PS concentration of 30 µM) is “no cytotoxic effect”.
Take `C=Cc1c(C)c2cc3nc(c4c5[nH]c(cc6nc(cc1[nH]2)C(C)=C6CC)c(C)c5C(=O)C4)[C@@H](CCC(=O)O)[C@@H]3C` [Pyro, pyropheophorbide-a, reference compound]: in series [1], the “τf (fluorescence lifetime)” value amounted to 6.8 ns and the “Φf (fluorescence quantum yield)” value came out at 0.38. Further, in the series on U87 glioblastoma cells [2], the “PDT efficacy / photodynamic activity (in words)” value is given as “low PDT efficacy”. In addition, the “dark cytotoxicity (metabolic activity of U87 cells)” value with U87 glioblastoma cells [3] (10 µM PS) is “decrease the metabolic activity of U87 cells”.

The values are drawn from paper PMC6947424, “New Targeted Gold Nanorods for the Treatment of Glioblastoma by Photodynamic Therapy” (Journal of Clinical Medicine, 2019).
